Data on three molecules can be found in publication PMC6362038, “Secondary structures and cell-penetrating abilities of arginine-rich peptide foldamers” (Scientific Reports, 2019).

A short description of data set [1]: Resistance to protease digestion with trypsin. It counts as in vitro ADME. The note with it: 10 µM peptide in 2.5 × 10^−6 w/v% trypsin/PBS, 37 °C, RP-HPLC, α-CHCA internal standard, read-out: intact peptide after incubation with trypsin. The text has this:
Next, we examined the stability of peptides against protease digestion using trypsin (Fig. 4a) and pronase (Fig. 4b). One of the advantages of peptide foldamers containing dAAs is their high resistance to degradation by proteases[38]–[40]. Trypsin is a serine protease that cleaves amide bonds at the C terminus of cationic amino acids such as Arg and lysine. Pronase is a non-specific protease mixture produced in the culture supernatant of Streptomyces griseus. Ac5c, Ac5c^dOM, (αMe)Leu, and Leu peptides were incubated with trypsin or pronase for 1, 2, and 4 h, and then rate of intact peptide was evaluated by RP-HPLC using α-cyano-4-hydroxycinnamic acid (α-CHCA) as an internal standard. Leu peptide was promptly degraded by both trypsin and pronase, and reached 0% intact peptide after 4 h incubation in a similar manner to Arg peptide reported previously[24],[25]. On the other hand, approximately 80% of Ac5c, Ac5c^dOM, and (αMe)Leu peptides remained intact even after 4 h incubation. Introduction of dAAs into peptides markedly elevated resistance to protease digestion, whether or not peptides formed stable helical structures. In other words, peptides composed of only natural α-amino acids were easily degraded by proteases independently of their peptide secondary structures.
One-hundred microliters of peptide solution (10 µM) in 2.5 × 10^−6 w/v% trypsin or pronase/phosphate buffer saline (PBS) was incubated at 37 °C for 0, 1, 2, and 4 h. After each incubation time, 250 µL of 1% TFA/PBS solution was added to inactivate the proteases, and 50 µL of 1/2 diluted saturated α-CHCA solution was added as an internal standard, followed by HPLC analysis, which was performed using the above-mentioned conditions.

Data set [2] in a line: Circular dichroism, R value of secondary structure. The note with it: CD, peptide 24 µM. It counts as physicochemical. The procedure: The conformations of peptides were analyzed by circular dichroism (CD) in pH 7.3 4-(2-hydroxyethyl)-1-piperazineethanesulfonic acid (HEPES) buffer (Fig. 3a), 40% 2,2,2-trifluoroethanol (TFE)/pH 7.3 HEPES buffer (Fig. 3b), and 75% TFE/pH 7.3 HEPES buffer (Fig. 3c). Negative maxima at 205–209 nm (π → π*) and 222–225 nm (n → π*) were diagnostic of a right-handed (P) helical structure[31]–[33]. The ratio of R (θπ → π*/θn → π*) has been used as a parameter to distinguish an α-helical structure from a 3_10-helical structure (i.e., R ≈ 1: α-helix; R < 0.4: 3_10-helix) (Table S1)[34],[35]. Helical content (helicity) of peptides was estimated from the intensity of θn → π* values. A negative maximum at 195–200 nm (π → π*) and a weak positive maximum at 217 nm (n → π*) were diagnostic of a random coil structure. […] By adding TFE to HEPES buffer, (αMe)Leu peptide formed a complete right-handed (P) helical structure in a mixture of α- and 3_10-helices (R = 0.57 and 0.56 in Figs 3b and […], respectively). The dominant structures of Ac5c and Leu peptides changed by increased the rate of TFE to eventually be α-/3_10-helices (R = 0.52) and 3_10-helix (R = 0.30), respectively (Fig. 3c). […] Cbz-[L-Leu-L-Leu-(S,S)-Ac5c^dOM]3-OMe was reported to form a right-handed (P) helical structure in 50% TFE/H2O[37]. L-Leu might contribute to stabilization of the peptide helical secondary structure as well as (S,S)-Ac5c^dOM. Destabilization of the peptide helical secondary structure by L-Arg might be stronger than stabilization of it by (S,S)-Ac5c^dOM. Taken together with the results of CD spectra (Fig. 3), in which helicity of peptides was estimated from the intensity of θn → π* values, stability in the helicity of the peptides in the current study was as follows: (αMe)Leupeptide>Ac5cpeptide≈Leupeptide>Ac5c^dOMpeptide≈Argpeptide.
Figure 3 CD spectra of peptides in (a) HEPES buffer, (b) 40% TFE/HEPES buffer, and (c) 75% TFE/HEPES buffer. Peptide concentration: 24 µM.
Optical rotation [α]^rtD was measured using a Jasco DIP-370 polarimeter (JASCO, Tokyo, Japan) using a 0.5 dm cell. Infrared (IR) spectra were recorded using a Shimadzu IR Affinity-1 spectrometer (Shimadzu Corporation, Kyoto, Japan) for conventional measurement (KBr). CD spectra were recorded using a Jasco J-720W spectropolarimeter (JASCO) with a 1.0 mm path length cell. ^1H NMR (400 MHz) and ^13C NMR (100 MHz) spectra were determined using a JEOL AL 400 spectrometer (JEOL Ltd, Tokyo, Japan). Fast atom bombardment (FAB)-MS was measured using a JEOL JMS-700N (JEOL). MALDI-TOF-MS spectra were recorded using a Bruker Ultrax spectrometer (Bruker Daltonics, Fermont, CA). Piperidine was purchased from Tokyo Chemical Industry Co., Ltd. (Tokyo, Japan). Fmoc-L-Arg(Pbf)-OH, Fmoc-Gly-OH, Fmoc-L-Leu-OH, and CLEAR-Amide resin were purchased from the Peptide Institute., Inc. (Osaka, Japan). Fmoc-(S)-(αMe)Leu-OH was obtained from Nagase & Co., Ltd. (Kyoto, Japan). Fmoc-Ac5c-OH was purchased from Watanabe Chemical Industries, Ltd. (Hiroshima, Japan). HATU, HBTU, HOAt, and HOBt were from AAPPTec (Louisville, KY). COMU was from Novabiochem (Tokyo, Japan). CF and Dulbecco’s modified Eagle’s medium (DMEM) were obtained from Sigma-Aldrich Co. (St. Louis, MO). diisopropylethylamine (DIPEA) and heparin were purchased from Wako Pure Chemicals Co., Inc. (Osaka, Japan). Diethyl ether was from Kanto Chemical Co., Inc. (Tokyo, Japan). Trifluoroacetic acid (TFA) was obtained from Nacalai Tesque, Co., Inc. (Kyoto, Japan). Hoechst 33342 and a Cell counting kit-8 were purchased from Dojindo Laboratories (Kumamoto, Japan). LysoTracker Red was from Molecular Probes (Eugene, OR).
Table S1. R values (qπ → π*/qn → π*) of synthetic peptides.
R value (qπ → π*/qn → π* )
HEPES 40% TFE/HEPES 75% TFE/HEPES
(In general: Circular dichroism is widely used to follow secondary structure.)

The mark [3] stands for this setting: pH 7.3 HEPES buffer, R ≈ 1 α-helix, R < 0.4 3_10-helix.

Numbered stars: 1 amine (or outer) side, 2 acyl side, 3 side chain; on linkers, the order of the positions; unused ones are H or OH. Square brackets hold non-standard residues; d marks the D form. Peptide text beside a SMILES is read from it. * marks the point of attachment. 5FAM = O=C1OC2(c3ccc(O)cc3Oc3cc(O)ccc32)c2ccc(C(=O)*)cc21; X1 = CO[C@H]1CC(N[*:1])(C(=O)[*:2])C[C@@H]1OC; αMeL = CC(C)C[C@](C)(N)C(=O)O; Ac5c = NC1(C(=O)O)CCCC1

With `CC(C)C[C@](C)(NC(=O)[C@H](CCCNC(=N)N)NC(=O)[C@H](CCCNC(=N)N)NC(=O)[C@](C)(CC(C)C)NC(=O)[C@H](CCCNC(=N)N)NC(=O)[C@H](CCCNC(=N)N)NC(=O)[C@](C)(CC(C)C)NC(=O)[C@H](CCCNC(=N)N)NC(=O)[C@H](CCCNC(=N)N)NC(=O)CNC(=O)c1ccc2c(c1)C(=O)OC21c2ccc(O)cc2Oc2cc(O)ccc21)C(N)=O` [(αMe)Leu peptide] (5FAM-GRR[αMeL]RR[αMeL]RR[αMeL]-NH2), the remaining at 4 h, 10 µM in data set [1] is roughly 80%. In addition, the entries for the “R value (θπ → π*/θn → π*)” value in data set [2] (40% TFE/pH 7.3 HEPES buffer), in data set [2] (75% TFE/pH 7.3 HEPES buffer) and in data set [2] (setting [3]) were 0.57, 0.56 and 0.45, respectively.

With `N=C(N)NCCC[C@H](NC(=O)CNC(=O)c1ccc2c(c1)C(=O)OC21c2ccc(O)cc2Oc2cc(O)ccc21)C(=O)N[C@@H](CCCNC(=N)N)C(=O)NC1(C(=O)N[C@@H](CCCNC(=N)N)C(=O)N[C@@H](CCCNC(=N)N)C(=O)NC2(C(=O)N[C@@H](CCCNC(=N)N)C(=O)N[C@@H](CCCNC(=N)N)C(=O)NC3(C(N)=O)CCCC3)CCCC2)CCCC1` [Ac5c peptide] (5FAM-GRR[Ac5c]RR[Ac5c]RR[Ac5c]-NH2), the remaining at 4 h, 10 µM in data set [1] is roughly 80%. In addition, the figures for the “R value (θπ → π*/θn → π*)” value in data set [2] (40% TFE/pH 7.3 HEPES buffer), in data set [2] (75% TFE/pH 7.3 HEPES buffer) and in data set [2] (setting [3]) were 0.61, 0.52 and “No significant maxima”, respectively.

On to `CO[C@H]1CC(NC(=O)[C@H](CCCNC(=N)N)NC(=O)[C@H](CCCNC(=N)N)NC(=O)C2(NC(=O)[C@H](CCCNC(=N)N)NC(=O)[C@H](CCCNC(=N)N)NC(=O)C3(NC(=O)[C@H](CCCNC(=N)N)NC(=O)[C@H](CCCNC(=N)N)NC(=O)CNC(=O)c4ccc5c(c4)C(=O)OC54c5ccc(O)cc5Oc5cc(O)ccc54)C[C@H](OC)[C@@H](OC)C3)C[C@H](OC)[C@@H](OC)C2)(C(N)=O)C[C@@H]1OC` [Ac5c^dOM peptide] (5FAM-GRR[X1]RR[X1]RR[X1]-NH2), for which, in data set [1], the remaining at 4 h, 10 µM is roughly 80%. Moreover, the “R value (θπ → π*/θn → π*)” value in data set [2] (40% TFE/pH 7.3 HEPES buffer), in data set [2] (75% TFE/pH 7.3 HEPES buffer) and in data set [2] (setting [3]) was “No significant maxima” throughout.
